Experimental data published in patent US20120277209A1, “PYRAZINE COMPOUNDS AS PHOSPHODIESTERASE 10 INHIBITORS” (Amgen Inc., priority 2009, published 2012).

What follows are compounds tested against PDE10 (UniProt Q9Y233) (assay: PDE10 enzyme inhibition, IMAP TR-FRET assay (MPDE10A7 Enzyme Activity and Inhibition)). Details: IC50 class against PDE10; read-out: IC50.
Type: biochemical
Summary of the method: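 IMAP TR-FRET read-out of PDE10 hydrolysis of fluorescein-cAMP or -cGMP (60 min, room temperature), after a 30 min compound-enzyme preincubation. Enzyme source was PDE10A or tissue homogenate. Averaged IC50s are reported as five range classes.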

SMILES	IC50
O=C(c1ccc(Oc2nccnc2OCC(F)(F)F)cc1)c1nc2ccccc2[nH]1 [Example 164]	250 to 1000 nM
CC(O)C(=O)N1CCC(c2nccnc2Oc2ccc(Nc3nc4ccccc4s3)cc2)CC1 (stereo not shown) [Example 239, 1-(4-(3-(4-(benzo[d]thiazol-2-ylamino)phenoxy)pyrazin-2-yl)piperidin-1-yl)-2-hydroxypropan-1-one]	< 25 nM
COCC1CCCN(c2nccnc2Oc2ccc(Nc3nc4ccccc4s3)cc2)C1 (stereo not shown) [Example 98, N-(4-(3-(3-(methoxymethyl)-piperidin-1-yl)pyrazin-2-yloxy)-phenyl)benzo[d]thiazol-2-amine]	25 to 100 nM
COc1ncccc1-c1nccnc1Oc1ccc(C(=O)c2nc3ccccc3n2CCF)cc1 [Example 134, (1-(2-fluoroethyl)-1H-benzo[d]imidazol-2-yl)(4-(3-(2-methoxypyridin-3-yl)pyrazin-2-yloxy)phenyl)methanone]	< 25 nM
N#Cc1ccc(-c2nccnc2Oc2ccc(C(=O)c3nc4ccccc4[nH]3)cc2)cc1 [Example 108, 4-(3-(4-(1H-benzo[d]imidazole-2-carbonyl)phenoxy)pyrazin-2-yl)benzonitrile]	< 25 nM
N#CCC(=O)N1CCC(c2nccnc2Oc2ccc(C(=O)c3nc4ccccc4[nH]3)cc2)CC1 [Example 247, 3-(4-(3-(4-(1H-benzo[d]imidazole-2-carbonyl)phenoxy)pyrazin-2-yl)piperidin-1-yl)-3-oxopropanenitrile]	< 25 nM
c1ccc2sc(Nc3ccc(Oc4nccnc4N4CCC4)cc3)nc2c1 [Example 77, N-(4-(3-(azetidin-1-yl)pyrazin-2-yloxy)phenyl)benzo[d]thiazol-2-amine]	25 to 100 nM
COc1ncccc1-c1nccnc1Oc1ccc(C(=O)c2nc3ccccc3n2C)cc1 [Example 119, (4-(3-(2-methoxypyridin-3-yl)pyrazin-2-yloxy)phenyl)(1-methyl-1H-benzo[d]imidazol-2-yl)methanone]	< 25 nM
OC1CCCN(c2nccnc2Oc2ccc(Nc3nc4ccccc4s3)cc2)C1 (stereo not shown) [Example 69, 1-(3-(4-(benzo[d]thiazol-2-ylamino)phenoxy)pyrazin-2-yl)piperidin-3-ol]	< 25 nM
N#Cc1ccc(-c2nccnc2Oc2ccc(Nc3nc4ccccc4s3)cc2)cn1 [Example 142, 5-(3-(4-(benzo[d]thiazol-2-ylamino)phenoxy)pyrazin-2-yl)picolinonitrile]	< 25 nM
Cc1ncccc1-c1nccnc1Oc1ccc(C(=O)c2nc3ccccc3n2C)cc1 [Example 110, (1-methyl-1H-benzo[d]imidazol-2-yl)(4-(3-(2-methylpyridin-3-yl)pyrazin-2-yloxy)phenyl)methanone]	25 to 100 nM
COc1nccnc1Oc1ccc(C(=O)c2nc3ccccc3[nH]2)cc1 [Example 160, (1H-benzo[d]imidazol-2-yl)(4-(3-methoxypyrazin-2-yloxy)phenyl)methanone]	1000 to 5000 nM
N#CC1CN(c2nccnc2Oc2ccc(Nc3nc4ccccc4s3)cc2)C1 [Example 93, 1-(3-(4-(benzo[d]thiazol-2-yl-amino)phenoxy)pyrazin-2-yl)-azetidine-3-carbonitrile]	25 to 100 nM
CC(F)C(=O)N1CCC(c2nccnc2Oc2ccc(Nc3nc4ccccc4s3)cc2)CC1 (stereo not shown) [Example 235, 1-(4-(3-(4-(benzo[d]thiazol-2-ylamino)phenoxy)pyrazin-2-yl)piperidin-1-yl)-2-fluoropropan-1-one]	< 25 nM
COc1ncccc1-c1nccnc1Oc1ccc(C(=O)c2nc3cc(F)ccc3[nH]2)cc1 [Example 117, (5-fluoro-1H-benzo[d]imidazol-2-yl)(4-(3-(2-methoxypyridin-3-yl)pyrazin-2-yloxy)phenyl)methanone]	25 to 100 nM
COc1cc(-c2nccnc2Oc2ccc(Nc3nc4ccccc4s3)cc2)ccn1 [Example 152, N-(4-(3-(2-methoxypyridin-4-yl)pyrazin-2-yloxy)phenyl)benzo[d]thiazol-2-amine]	< 25 nM
c1ccc2sc(Nc3ccc(Oc4nccnc4C4CCCC4)cc3)nc2c1 [compound 223, N-(4-(3-cyclopentylpyrazin-2-yloxy)phenyl)benzo [d]thiazol-2-amine]	< 25 nM
CC(=O)N1CCC(c2nccnc2Oc2ccc(C(=O)c3nc4ccccc4[nH]3)cc2)C1 (stereo not shown) [Example 240, 1-(3-(3-(4-(1H-benzo[d]imidazole-2-carbonyl)phenoxy)pyrazin-2-yl)pyrrolidin-1-yl)ethanone]	< 25 nM
O=C(c1ccc(Oc2nccnc2C2CCN(CCF)CC2)cc1)c1nc2ccccc2[nH]1 [Example 226, (1H-BENZO[D]IMIDAZOL-2-YL)(4-(3-(1-(2-FLUOROETHYL)PIPERIDIN-4-YL)PYRAZIN-2-YLOXY)PHENYL)METHANONE]	< 25 nM

Same assay, conditions: PDE10 enzyme inhibition; average IC50 data for each compound; read-out: Average IC50

SMILES	IC50
O=C(c1ccc(Oc2nccnc2N2CCC(C(=O)O)CC2)cc1)c1nc2ccccc2[nH]1	1.18 nM
O=C(c1ccc(Oc2nccnc2OCCc2ccccn2)cc1)c1nc2ccccc2[nH]1 [drawing 860]	8.05 nM
COc1ncccc1-c1nccnc1Oc1ccc(C(=O)c2nc3ccccc3n2CCF)cc1 [drawing 994]	5.83 nM
c1ccc2sc(Nc3ccc(Oc4nccnc4[C@H]4CCOC4)cc3)nc2c1 (stereo in doubt)	2.03 nM
COC(=O)[C@@H]1CCN(c2nccnc2Oc2ccc(C(=O)c3nc4ccccc4[nH]3)cc2)C1 [drawing 838]	1.35 nM
N#C[C@@H]1CCN(c2nccnc2Oc2ccc(C(=O)c3nc4ccccc4[nH]3)cc2)C1 [drawing 828]	1.76 nM
OC[C@@H]1CCN(c2nccnc2Oc2ccc(Nc3nc4ccccc4s3)cc2)C1 [drawing 732]	2.89 nM
Fc1cccc2nc(Nc3ccc(Oc4cnccn4)cc3)sc12 [drawing 880]	803 nM
COC(=O)[C@@H]1CCN(c2nccnc2Oc2ccc(C(=O)c3nc4ccccc4[nH]3)cc2)C1 (stereo in doubt)	3.43 nM
O=C(c1ccc(Oc2nccnc2N2CC(O)C2)cc1)c1nc2ccccc2[nH]1	6.94 nM
N#Cc1ccc(-c2nccnc2Oc2ccc(Nc3nc4ccccc4s3)cc2)cn1 [drawing 777]	63.8 nM
O=C(c1ccc(Oc2nccnc2OCCN2CCCC2)cc1)c1nc2ccccc2[nH]1 [drawing 856]	541 nM
COc1nccnc1Oc1ccc(C(=O)c2nc3ccccc3[nH]2)cc1 [drawing 843]	43.6 nM
[2H]C([2H])([2H])C(=O)N1CCC(c2nccnc2Oc2ccc(C(=O)c3nc4ccccc4[nH]3)cc2)CC1 [drawing 993]	0.105 nM
c1ccc2sc(Nc3ccc(Oc4nccnc4-c4cncnc4)cc3)nc2c1 [drawing 778]	12.9 nM
CC(C)(O)[C@@H]1CCCN1c1nccnc1Oc1ccc(Nc2nc3ccccc3s2)cc1 [drawing 737]	60 nM
Cc1ccc(-c2nccnc2Oc2ccc(Nc3nc4ccccc4s3)cc2)cn1 [drawing 764]	11.3 nM
CC(C)N1CCN(c2nccnc2Oc2ccc(Nc3nc4ccccc4s3)cc2)CC1=O [drawing 766]	12.7 nM
COc1ncccc1-c1nccnc1Oc1ccc(Nc2nc3cccc(F)c3s2)cc1 [drawing 950]	7.76 nM
COC[C@@H]1CCCN1c1nccnc1Oc1ccc(Nc2nc3ccccc3s2)cc1 [drawing 719]	9.44 nM

Same assay, conditions: PDE10 enzyme inhibition; chiral compounds separated from racemic mixtures; read-out: IC50

SMILES	IC50
O=C(c1ccc(Oc2nccnc2[C@H]2CCC[C@H](O)C2)cc1)c1nc2ccccc2[nH]1 [Example 273, (1H-benzo[d]imidazol-2-yl)(4-(3-((1S,3S)-3-hydroxycyclohexyl)pyrazin-2-yloxy)phenyl) methanone]	< 25 nM
